Experimental findings from patent US20120270915A1, “FATTY ACID AMIDE HYDROLASE INHIHIBITORS FOR TREATING PAIN” (priority 2011, published 2012) are described below.

Like-named read-outs stand apart in the source and are kept apart here.

In general, Kb refers to the equilibrium dissociation constant of an antagonist, usually derived from a functional assay. Higher therefore signals lower antagonist affinity.

The target of one test is T1, TP receptor (Homo sapiens, UniProt P21731).
T1 sequence (P21731 1-343): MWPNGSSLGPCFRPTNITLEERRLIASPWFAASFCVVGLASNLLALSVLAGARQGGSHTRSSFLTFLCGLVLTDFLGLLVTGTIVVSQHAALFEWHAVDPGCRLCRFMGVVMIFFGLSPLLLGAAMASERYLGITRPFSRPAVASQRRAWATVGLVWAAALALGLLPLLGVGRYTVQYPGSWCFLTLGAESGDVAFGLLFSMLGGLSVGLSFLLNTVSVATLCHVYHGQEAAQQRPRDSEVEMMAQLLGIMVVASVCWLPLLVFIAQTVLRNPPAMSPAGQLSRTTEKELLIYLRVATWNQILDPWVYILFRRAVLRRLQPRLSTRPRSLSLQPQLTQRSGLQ
Description: Prostanoid receptor antagonism (FLIPR), TP. It counts as cell-based.

The target in the next test is IP receptor (Homo sapiens, UniProt P43119). Briefly: Prostanoid receptor antagonism (FLIPR), IP. It counts as cell-based. The note with it: Table 1.
The target in the next test is T2, FAAH Rat brain (Rattus norvegicus, UniProt P97612).
T2 construct: from tissue; host or cells: rat brain membranes
T2 sequence (P97612 1-579): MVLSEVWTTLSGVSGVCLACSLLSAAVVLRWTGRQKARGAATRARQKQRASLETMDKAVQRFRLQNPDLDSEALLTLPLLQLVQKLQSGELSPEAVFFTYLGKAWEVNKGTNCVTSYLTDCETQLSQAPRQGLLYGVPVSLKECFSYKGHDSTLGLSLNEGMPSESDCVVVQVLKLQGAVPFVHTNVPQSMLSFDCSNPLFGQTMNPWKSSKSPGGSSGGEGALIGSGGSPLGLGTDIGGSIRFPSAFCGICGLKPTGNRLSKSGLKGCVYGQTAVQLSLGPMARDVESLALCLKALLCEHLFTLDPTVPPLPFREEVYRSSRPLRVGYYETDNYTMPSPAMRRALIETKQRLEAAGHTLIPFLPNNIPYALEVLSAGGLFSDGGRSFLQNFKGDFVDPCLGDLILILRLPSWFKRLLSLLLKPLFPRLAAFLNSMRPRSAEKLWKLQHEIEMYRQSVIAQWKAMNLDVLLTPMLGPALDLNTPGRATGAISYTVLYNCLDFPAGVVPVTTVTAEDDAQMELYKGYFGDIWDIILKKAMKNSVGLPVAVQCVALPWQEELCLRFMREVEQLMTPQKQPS
Briefly: FAAH inhibitory activity, rat brain membranes, [14C]-AEA hydrolysis. Format: biochemical. The procedure: The compounds of Examples 12, and 19 are tested for FAAH inhibitory activity as follows:
Method 1: Membranes obtained from rat brain are incubated with 2 mM [^14C]-AEA, 30 min at 37° C. at pH values ranging from 9.00 to 10.00 in presence and absence of tested compounds in a final volume of […]. Incubation is stopped by extraction with CHCl3/MeOH (1:1) and the aqueous phases containing [^14C]-Ethanolamine produced by [^14C]-AEA hydrolysis are measured.

The target of a further test is T3, EP3 receptor (Homo sapiens, UniProt P43115).
T3 sequence (P43115 1-390): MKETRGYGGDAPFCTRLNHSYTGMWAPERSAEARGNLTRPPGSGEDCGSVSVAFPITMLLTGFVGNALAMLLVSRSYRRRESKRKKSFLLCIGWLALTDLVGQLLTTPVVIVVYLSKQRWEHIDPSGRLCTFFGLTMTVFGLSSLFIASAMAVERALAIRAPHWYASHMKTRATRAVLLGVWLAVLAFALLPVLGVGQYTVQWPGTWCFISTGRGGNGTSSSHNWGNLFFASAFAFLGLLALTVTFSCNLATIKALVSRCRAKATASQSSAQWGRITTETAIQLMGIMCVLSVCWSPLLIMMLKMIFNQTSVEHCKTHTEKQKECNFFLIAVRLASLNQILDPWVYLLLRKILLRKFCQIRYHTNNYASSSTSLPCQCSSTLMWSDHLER
Briefly: Prostanoid receptor antagonism (FLIPR), EP3. It counts as cell-based.

The target of the next test is T4, EP1 receptor (Homo sapiens, UniProt P34995).
T4 sequence (P34995 1-402): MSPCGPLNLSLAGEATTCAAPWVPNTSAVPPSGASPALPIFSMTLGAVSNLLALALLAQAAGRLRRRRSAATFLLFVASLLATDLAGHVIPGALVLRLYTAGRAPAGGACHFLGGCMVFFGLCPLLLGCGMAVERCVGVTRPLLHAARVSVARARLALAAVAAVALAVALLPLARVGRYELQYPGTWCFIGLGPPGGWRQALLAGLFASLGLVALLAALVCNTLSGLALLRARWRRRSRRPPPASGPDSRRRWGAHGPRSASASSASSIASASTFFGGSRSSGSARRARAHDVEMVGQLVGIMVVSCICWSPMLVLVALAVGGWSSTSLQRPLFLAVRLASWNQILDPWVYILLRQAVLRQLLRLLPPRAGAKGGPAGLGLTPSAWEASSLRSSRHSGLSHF
Description: Prostanoid receptor antagonism (FLIPR), EP1. It counts as cell-based.

The target in the next test is EP4 receptor (Homo sapiens, UniProt P35408). Briefly: Prostanoid receptor antagonism (FLIPR), EP4. It counts as cell-based.
Another test addresses EP2 receptor (Homo sapiens, UniProt P43116). Briefly: Prostanoid receptor antagonism (FLIPR), EP2. Format: cell-based.
The target of the next test is T5, DP receptor (Homo sapiens, UniProt Q13258).
T5 sequence (Q13258 1-359): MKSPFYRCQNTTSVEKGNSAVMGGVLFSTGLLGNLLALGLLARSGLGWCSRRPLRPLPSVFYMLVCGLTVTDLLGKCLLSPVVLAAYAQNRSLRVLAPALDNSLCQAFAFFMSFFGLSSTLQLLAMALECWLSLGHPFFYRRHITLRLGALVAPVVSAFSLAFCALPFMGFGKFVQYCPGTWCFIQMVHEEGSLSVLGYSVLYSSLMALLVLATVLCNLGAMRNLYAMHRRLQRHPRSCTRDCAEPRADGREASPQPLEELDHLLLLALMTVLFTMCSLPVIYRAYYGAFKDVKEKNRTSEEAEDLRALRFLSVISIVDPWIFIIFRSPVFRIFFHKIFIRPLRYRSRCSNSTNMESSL
Description: Prostanoid receptor antagonism (FLIPR), DP. Format: cell-based.

The target of another test is FP receptor (Homo sapiens, UniProt P43088). Briefly: Prostanoid receptor antagonism (FLIPR), FP. It counts as cell-based.
Where [1] appears, read: Table 1, rat brain, read-out: FAAH Rat brain IC50.
[2] abbreviates: Table 2, rat brain, read-out: FAAH Rat brain IC50.
Where [3] appears, read: Table 3, quantity, enzyme source and unit inferred, read-out: FAAH.

FP receptor, sequence (P43088 whole entry): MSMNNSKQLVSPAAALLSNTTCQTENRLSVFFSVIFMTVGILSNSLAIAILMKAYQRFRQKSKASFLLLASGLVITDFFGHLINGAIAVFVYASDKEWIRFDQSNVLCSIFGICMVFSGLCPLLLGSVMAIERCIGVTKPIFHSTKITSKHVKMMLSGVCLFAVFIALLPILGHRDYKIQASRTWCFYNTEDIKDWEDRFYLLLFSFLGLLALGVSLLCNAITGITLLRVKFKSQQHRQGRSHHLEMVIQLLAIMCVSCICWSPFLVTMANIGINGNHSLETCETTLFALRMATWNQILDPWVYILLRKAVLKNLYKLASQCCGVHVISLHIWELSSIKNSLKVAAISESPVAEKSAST
IP receptor, sequence (P43119 whole entry): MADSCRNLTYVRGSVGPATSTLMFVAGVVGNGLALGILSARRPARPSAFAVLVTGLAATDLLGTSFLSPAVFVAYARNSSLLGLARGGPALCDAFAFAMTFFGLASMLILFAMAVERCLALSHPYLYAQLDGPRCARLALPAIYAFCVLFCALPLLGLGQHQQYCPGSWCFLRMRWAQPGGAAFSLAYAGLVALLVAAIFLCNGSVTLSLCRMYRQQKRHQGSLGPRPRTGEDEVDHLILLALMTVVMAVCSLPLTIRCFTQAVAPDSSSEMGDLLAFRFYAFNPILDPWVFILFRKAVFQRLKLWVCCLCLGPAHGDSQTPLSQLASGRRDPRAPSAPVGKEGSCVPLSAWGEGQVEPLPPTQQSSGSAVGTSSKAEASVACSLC
EP4 receptor, sequence (P35408 whole entry): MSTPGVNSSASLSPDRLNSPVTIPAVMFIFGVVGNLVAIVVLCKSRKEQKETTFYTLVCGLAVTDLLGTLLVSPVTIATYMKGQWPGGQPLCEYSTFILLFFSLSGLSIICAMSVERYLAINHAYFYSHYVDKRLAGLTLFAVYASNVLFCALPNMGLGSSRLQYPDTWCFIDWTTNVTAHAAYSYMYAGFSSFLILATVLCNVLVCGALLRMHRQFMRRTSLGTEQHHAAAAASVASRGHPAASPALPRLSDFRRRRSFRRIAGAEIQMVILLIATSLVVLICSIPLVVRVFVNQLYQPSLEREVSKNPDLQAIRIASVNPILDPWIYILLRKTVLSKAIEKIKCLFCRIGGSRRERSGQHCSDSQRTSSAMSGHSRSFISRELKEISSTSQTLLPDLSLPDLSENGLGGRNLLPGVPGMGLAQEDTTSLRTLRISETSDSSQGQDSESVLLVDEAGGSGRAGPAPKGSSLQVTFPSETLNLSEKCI
EP2 receptor, sequence (P43116 whole entry): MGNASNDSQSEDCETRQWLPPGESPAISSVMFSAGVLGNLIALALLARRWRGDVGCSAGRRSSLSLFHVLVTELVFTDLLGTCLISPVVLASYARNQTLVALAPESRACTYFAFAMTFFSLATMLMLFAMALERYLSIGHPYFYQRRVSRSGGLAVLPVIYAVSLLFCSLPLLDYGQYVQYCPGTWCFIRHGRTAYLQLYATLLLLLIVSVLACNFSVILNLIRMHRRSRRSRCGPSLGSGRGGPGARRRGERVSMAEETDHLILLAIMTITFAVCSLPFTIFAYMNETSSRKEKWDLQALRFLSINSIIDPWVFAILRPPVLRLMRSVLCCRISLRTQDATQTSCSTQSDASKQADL

Consider `O=C(CCc1ccc(F)cc1CN1CCC[C@H]1c1nc(C(=O)NCCCCC2CCCCC2)co1)NS(=O)(=O)C(F)(F)F` [Example 12a], for which the Kb at TP receptor (Table 1) is under 1 nM; on IP receptor, 550 nM; at EP3 receptor (Table 1) it was 80 nM; on EP1 receptor (Table 1) it was 50 nM; on EP4 receptor (Table 1), 40 nM; on EP2 receptor (Table 1) it was 6400 nM. For the same compound, the figures for the Kb on DP receptor (Table 1) and at FP receptor (Table 1) were under 1 nM and 350 nM, respectively. Besides, the IC50 at FAAH Rat brain (setting [1]) amounted to 1000 nM.

In the case of `O=C(CCc1ccc(Cl)cc1CN1CCC[C@H]1c1nc(C(=O)NCCCCC2CCCCC2)co1)NS(=O)(=O)C(F)(F)F` [Example 12b, (S)—N-(4-cyclohexylbutyl)-2-(1-(5-chloro-2-(3-oxo-3-(trifluoromethylsulfonamido)propyl)benzyl)pyrrolidin-2-yl)oxazole-4-carboxamide], the antagonist equilibrium constant (Kb) is under 1 nM at TP receptor (Table 1); 9500 nM on IP receptor; 100 nM on EP3 receptor (Table 1); 70 nM on EP1 receptor (Table 1); 40 nM on EP4 receptor (Table 1); 5500 nM on EP2 receptor (Table 1). For the same compound, the Kb at DP receptor (Table 1) was under 1 nM; at FP receptor (Table 1) it was 460 nM. Further, the IC50 at FAAH Rat brain (setting [1]) turned out to be 4500 nM.

Take `COc1ccc(CCC(=O)NS(=O)(=O)C(F)(F)F)c(CN2CCC[C@H]2c2nc(C(=O)NCCCCC3CCCCC3)co2)c1` [Example 12c, (S)—N-(4-cyclohexylbutyl)-2-(1-(5-methoxy-2-(3-oxo-3-(trifluoromethylsulfonamido)propyl)benzyl)pyrrolidin-2-yl)oxazole-4-carboxamide]: the Kb on TP receptor (Table 1) was under 1 nM; at IP receptor it was 860 nM; at EP3 receptor (Table 1), 47 nM; at EP1 receptor (Table 1), 20 nM; at EP4 receptor (Table 1), 10 nM; on EP2 receptor (Table 1) it was 830 nM. Further, the values for the Kb at DP receptor (Table 1) and on FP receptor (Table 1) were 17 nM and 270 nM, respectively. In addition, the IC50 at FAAH Rat brain (setting [1]) is 200 nM.

Take `O=C(CCc1cc2c(cc1CN1CCC[C@H]1c1nc(C(=O)NCCCCC3CCCCC3)co1)OCO2)NS(=O)(=O)C(F)(F)F` [Example 12d]: the Kb at TP receptor (Table 1) amounted to 0.3 nM; on IP receptor, 1000 nM; at EP3 receptor (Table 1), 150 nM; on EP1 receptor (Table 1), 60 nM; at EP4 receptor (Table 1) it was 7 nM; at EP2 receptor (Table 1) it was 3900 nM. Moreover, the values for the antagonist dissociation constant (Kb) on DP receptor (Table 1) and at FP receptor (Table 1) were 3 nM and 360 nM, respectively. Further, the IC50 at FAAH Rat brain (setting [1]) came out at 740 nM.

With `CCCCCCCCNC(=O)c1coc([C@@H]2CCCN2Cc2cc(F)ccc2CCC(=O)NS(=O)(=O)C(F)(F)F)n1` [Example 12e, 2-{1-[5-fluoro-2-(3-oxo-3-{[(trifluoromethyl)sulfonyl]amino}propyl)benzyl]pyrrolidin-2-yl}-N-octyl-1,3-oxazole-4-carboxamide], the Kb on TP receptor (Table 1) was under 1 nM; at IP receptor, 290 nM; on EP3 receptor (Table 1), 110 nM; on EP1 receptor (Table 1) it was 20 nM; at EP4 receptor (Table 1), 20 nM; on EP2 receptor (Table 1) it was 2500 nM. Moreover, the values for the Kb at DP receptor (Table 1) and at FP receptor (Table 1) were 20 nM and 270 nM, respectively. The same compound displayed an IC50 at FAAH Rat brain of 2100 nM.

As for `COc1ccc(CCC(=O)NS(=O)(=O)CCCF)c(CN2CCC[C@H]2c2nc(C(=O)NCCCCC3CCCCC3)co2)c1` [Example 12h, 2(S)—N-(4-cyclohexylbutyl)-2-(1-(5-methoxy-2-(3-oxo-3-(fluoropropylsulfonamido)propyl)benzyl)pyrrolidin-2-yl)oxazole-4-carboxamide], the antagonist equilibrium constant (Kb) at TP receptor (Table 2) worked out at 8 nM; on EP3 receptor (Table 2) it was 50 nM; at EP1 receptor (Table 2), 830 nM; at EP4 receptor (Table 2), 150 nM; at EP2 receptor (Table 2, NA = inactive) it was 7800 nM; on DP receptor (Table 2) it was 8 nM. At FP receptor (Table 2), the Kb stood at 2000 nM. Besides, the IC50 on FAAH Rat brain (setting [2]) was found to be 100 nM.

As for `COc1ccc(CCC(=O)NS(=O)(=O)C(C)C)c(CN2CCC[C@H]2c2nc(C(=O)NCCCCC3CCCCC3)co2)c1` [Example 12i, (S)—N-(4-cyclohexylbutyl)-2-(1-(5-methoxy-2-(3-oxo-3-(isopropylsulfonamido)propyl)benzyl)pyrrolidin-2-yl)oxazole-4-carboxamide], the Kb on TP receptor (Table 2) is 1 nM; on EP3 receptor (Table 2), 480 nM; on EP1 receptor (Table 2), 1900 nM; on EP4 receptor (Table 2), 210 nM; at DP receptor (Table 2), 44 nM; at FP receptor (Table 2), 1500 nM. Further, the IC50 at FAAH Rat brain (setting [2]) worked out at 150 nM.

As to `COc1ccc(CCC(=O)NS(=O)(=O)c2ccc(Cl)s2)c(CN2CCC[C@H]2c2nc(C(=O)NCCCCC3CCCCC3)co2)c1` [Example 12j, (S)—N-(4-cyclohexylbutyl)-2-(1-(5-methoxy-2-(3-oxo-3-(5-chlorothienylsulfonamido)propyl)benzyl)pyrrolidin-2-yl)oxazole-4-carboxamide], the Kb was 4 nM on TP receptor (Table 2); 10 nM at EP3 receptor (Table 2); 240 nM on EP1 receptor (Table 2); 360 nM on EP4 receptor (Table 2); 900 nM at EP2 receptor (Table 2, NA = inactive); 28 nM at DP receptor (Table 2). At FP receptor (Table 2), this compound showed a Kb of 2300 nM. Also, the IC50 on FAAH Rat brain (setting [2]) was 210 nM.

As to `COc1ccc(CCC(=O)O)c(C(=O)N2CCC[C@H]2c2nc(C(=O)NCCCCC3CCCCC3)co2)c1` [Example 19], the IC50 at FAAH Rat brain (setting [3]) came to 180 nM.

As to `CCS(=O)(=O)NC(=O)CCc1ccc(OC)cc1C(=O)N1CCC[C@H]1c1nc(C(=O)NCCCCC2CCCCC2)co1` [Example 19a, 2-{(S)-1-[2-(3-Ethanesulfonylamino-3-oxo-propyl)-5-methoxy-benzoyl]-pyrrolidin-2-yl}-oxazole-4-carboxylic acid (4-cyclohexyl-butyl)-amide], the IC50 on FAAH Rat brain (setting [3]) worked out at 20 nM.

Regarding `COc1ccc(CCC(=O)NS(C)(=O)=O)c(C(=O)N2CCC[C@H]2c2nc(C(=O)NCCCCC3CCCCC3)co2)c1` [Example 19b, 2-{(S)-1-[2-(3-Methanesulfonylamino-3-oxo-propyl)-5-methoxy-benzoyl]-pyrrolidin-2-yl}-oxazole-4-carboxylic acid (4-cyclohexyl-butyl)-amide], at FAAH Rat brain (setting [3]), the IC50 is 30 nM.
